Test results: patent US20110319416A1, “Subunit Selective NMDA Receptor Antagonists For The Treatment Of Neurological Conditions” (EMORY UNIVERSITY, priority 2009, published 2011)
Read-outs that look alike come from different tables or passages of the source.

Experiments:
Format in all cases: cell-based
NR1/NR2A = NR1/NR2A (Rattus norvegicus, UniProt P35439+Q00959); test: Two electrode voltage clamp, Xenopus oocytes expressing recombinant NR1/NR2A; settings: for IC50: logistic fit, minimum forced to 0, read-out: 2A IC50
Description: (§1) Quality of synthesized cRNA was assessed by gel electrophoresis, and quantity was estimated by spectroscopy and gel electrophoresis. Stage V and VI oocytes were surgically removed from the ovaries of large, well-fed and healthy Xenopus laevis anesthetized with 3-amino-benzoic acid ethyl ester (3 gm/l) as previously described. Clusters of isolated oocytes were incubated with 292 U/ml Worthington (Freehold, N.J.) type IV collagenase or 1.3 mg/ml collagenase (Life Technologies, Gaithersburg, MD; 17018-029) for 2 hr in Ca^2+-free solution comprised of (in mM) 115 NaCl, 2.5 KCl, and 10 HEPES, pH 7.5, with slow agitation to remove the follicular cell layer. Oocytes were then washed extensively in the same solution supplemented with 1.8 mM CaCl2 and maintained in Barth's solution comprised of (in mM): 88 NaCl, 1 KCl, 2.4 NaHCO3, 10 HEPES, 0.82 MgSO4, 0.33 Ca(NO3)2, and 0.91 CaCl2 and supplemented with 100 μg/m1 gentamycin, 10 μg/ml streptomycin, and 10 μg/ml penicillin. Oocytes were manually defolliculated and injected within 24 hrs of isolation with 3-5 ng of NR1 subunit cRNA and 7-10 ng of NR2 cRNA subunit in a 50 nl volume, or 5-10 ng of AMPA or kainate receptor cRNAs in a 50 nl volume, and incubated in Barth's solution at 18° C. for 1-7 d. Glass injection pipettes had tip sizes ranging from 10-20 microns, and were backfilled with mineral oil.
(§2) Two electrode voltage-clamp recordings were made 2-7 days post-injection as previously described. Oocytes were placed in a dual-track plexi-glass recording chamber with a single perfusion line that splits in a Y-configuration to perfuse two oocytes. Dual recordings were made at room temperature (23° C.) using two Warner OC725B two-electrode voltage clamp amplifiers, arranged as recommended by the manufacturer. Glass microelectrodes (1-10 Megaohms) were filled with 300 mM KCl (voltage electrode) or 3 M KCl (current electrode). The bath clamps communicated across silver chloride wires placed into each side of the recording chamber, both of which were assumed to be at a reference potential of 0 mV. Oocytes were perfused with a solution comprised of (in mM) 90 NaCl, 1 KCl, 10 HEPES, and 0.5 BaCl2; pH was adjusted by addition of 1-3 M NaOH of HC1 to 7.4. Oocytes were recorded under voltage clamp at −40 mV. […] In some experiments, 10 μM EDTA was obtained by adding a 1:1000 dilution of 10 mM EDTA, in order to chelate contaminant divalent ions such as Zn^2+. […] Concentration effect curves consisting of 4 to 8 concentrations were obtained in this manner. The baseline leak current at −40 mV was measured before and after recording, and the full recording linearly corrected for any change in leak current. […] Each experiment consisted of recordings from 3 to 10 oocytes obtained from a single frog. Results from multiple experiments were pooled, and the average percent responses at antagonist concentrations were fitted by the equation,
(§3) Percent Response=(100−minimum)/(1+([conc]/IC50)nH)+minimum

NR1/NR2B = NR1/NR2B (Rattus norvegicus, UniProt P35439+Q00960); test: Two electrode voltage clamp, Xenopus oocytes expressing recombinant NR1/NR2B
Description: as §1, §2, §3

NR1/NR2C = NR1/NR2C (Rattus norvegicus, UniProt P35439+Q00961); test: Two electrode voltage clamp, Xenopus oocytes expressing recombinant NR1/NR2C; settings: for remaining activity at 100 µM: read-out: 2C percent effect at the maximum tested concentration
Description: as §1, §2, §3

NR1/NR2D = NR1/NR2D (Rattus norvegicus, UniProt P35439+Q62645); test: Two electrode voltage clamp, Xenopus oocytes expressing recombinant NR1/NR2D; settings: for remaining activity at 100 µM: read-out: 2D percent effect at the maximum tested concentration
Description: as §1, §2, §3

[1] = logistic fit, minimum forced to 0, read-out: 2B IC50
[2] = logistic fit, minimum forced to 0, read-out: 2C IC50
[3] = logistic fit, minimum forced to 0, read-out: 2D IC50
[4] = at 100 μM, read-out: 2A percent effect at the maximum tested concentration
[5] = at 100 μM, read-out: 2B percent effect at the maximum tested concentration
[6] = read-out: 2A percent effect at the maximum tested concentration
[7] = read-out: 2B percent effect at the maximum tested concentration

Chain of NR1/NR2A (Q00959 23-1464, other chains not shown): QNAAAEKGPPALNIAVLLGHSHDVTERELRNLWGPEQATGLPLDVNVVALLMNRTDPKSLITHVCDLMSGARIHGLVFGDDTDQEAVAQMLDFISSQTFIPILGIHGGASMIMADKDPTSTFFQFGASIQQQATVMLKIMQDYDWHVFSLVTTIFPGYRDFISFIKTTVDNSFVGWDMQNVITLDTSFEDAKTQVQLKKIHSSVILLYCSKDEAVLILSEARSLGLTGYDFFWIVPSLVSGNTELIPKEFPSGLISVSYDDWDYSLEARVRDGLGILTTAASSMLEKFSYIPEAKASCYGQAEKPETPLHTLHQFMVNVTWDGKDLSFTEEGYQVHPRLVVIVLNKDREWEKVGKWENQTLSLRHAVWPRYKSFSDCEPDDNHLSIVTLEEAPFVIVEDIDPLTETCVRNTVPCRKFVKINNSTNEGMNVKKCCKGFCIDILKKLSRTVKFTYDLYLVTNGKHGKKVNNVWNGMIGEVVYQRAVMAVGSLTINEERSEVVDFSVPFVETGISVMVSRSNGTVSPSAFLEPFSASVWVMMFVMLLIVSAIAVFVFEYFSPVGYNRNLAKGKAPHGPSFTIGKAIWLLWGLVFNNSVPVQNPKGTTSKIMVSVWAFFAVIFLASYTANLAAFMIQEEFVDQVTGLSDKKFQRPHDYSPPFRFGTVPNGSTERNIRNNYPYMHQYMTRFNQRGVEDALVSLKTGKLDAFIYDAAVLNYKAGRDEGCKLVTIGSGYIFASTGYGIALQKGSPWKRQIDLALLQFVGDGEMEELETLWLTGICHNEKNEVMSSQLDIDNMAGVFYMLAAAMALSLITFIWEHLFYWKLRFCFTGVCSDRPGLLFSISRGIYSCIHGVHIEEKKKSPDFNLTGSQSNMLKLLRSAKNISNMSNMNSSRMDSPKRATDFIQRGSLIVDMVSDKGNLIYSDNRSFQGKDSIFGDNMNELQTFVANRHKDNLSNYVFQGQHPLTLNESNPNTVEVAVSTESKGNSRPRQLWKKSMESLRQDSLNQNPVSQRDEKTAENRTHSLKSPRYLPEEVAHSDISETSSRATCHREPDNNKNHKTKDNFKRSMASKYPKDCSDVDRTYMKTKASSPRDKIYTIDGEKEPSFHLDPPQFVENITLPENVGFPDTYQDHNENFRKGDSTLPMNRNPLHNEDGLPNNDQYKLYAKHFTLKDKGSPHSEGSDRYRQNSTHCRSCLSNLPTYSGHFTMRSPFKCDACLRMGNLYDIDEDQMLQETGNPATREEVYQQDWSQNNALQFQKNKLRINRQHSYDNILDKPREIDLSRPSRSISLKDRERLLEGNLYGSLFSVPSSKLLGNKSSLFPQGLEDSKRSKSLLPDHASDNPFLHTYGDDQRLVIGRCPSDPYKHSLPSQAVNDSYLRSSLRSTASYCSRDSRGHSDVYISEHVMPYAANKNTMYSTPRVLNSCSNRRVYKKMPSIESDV
Chain of NR1/NR2B (Q00960 27-1482, other chains not shown): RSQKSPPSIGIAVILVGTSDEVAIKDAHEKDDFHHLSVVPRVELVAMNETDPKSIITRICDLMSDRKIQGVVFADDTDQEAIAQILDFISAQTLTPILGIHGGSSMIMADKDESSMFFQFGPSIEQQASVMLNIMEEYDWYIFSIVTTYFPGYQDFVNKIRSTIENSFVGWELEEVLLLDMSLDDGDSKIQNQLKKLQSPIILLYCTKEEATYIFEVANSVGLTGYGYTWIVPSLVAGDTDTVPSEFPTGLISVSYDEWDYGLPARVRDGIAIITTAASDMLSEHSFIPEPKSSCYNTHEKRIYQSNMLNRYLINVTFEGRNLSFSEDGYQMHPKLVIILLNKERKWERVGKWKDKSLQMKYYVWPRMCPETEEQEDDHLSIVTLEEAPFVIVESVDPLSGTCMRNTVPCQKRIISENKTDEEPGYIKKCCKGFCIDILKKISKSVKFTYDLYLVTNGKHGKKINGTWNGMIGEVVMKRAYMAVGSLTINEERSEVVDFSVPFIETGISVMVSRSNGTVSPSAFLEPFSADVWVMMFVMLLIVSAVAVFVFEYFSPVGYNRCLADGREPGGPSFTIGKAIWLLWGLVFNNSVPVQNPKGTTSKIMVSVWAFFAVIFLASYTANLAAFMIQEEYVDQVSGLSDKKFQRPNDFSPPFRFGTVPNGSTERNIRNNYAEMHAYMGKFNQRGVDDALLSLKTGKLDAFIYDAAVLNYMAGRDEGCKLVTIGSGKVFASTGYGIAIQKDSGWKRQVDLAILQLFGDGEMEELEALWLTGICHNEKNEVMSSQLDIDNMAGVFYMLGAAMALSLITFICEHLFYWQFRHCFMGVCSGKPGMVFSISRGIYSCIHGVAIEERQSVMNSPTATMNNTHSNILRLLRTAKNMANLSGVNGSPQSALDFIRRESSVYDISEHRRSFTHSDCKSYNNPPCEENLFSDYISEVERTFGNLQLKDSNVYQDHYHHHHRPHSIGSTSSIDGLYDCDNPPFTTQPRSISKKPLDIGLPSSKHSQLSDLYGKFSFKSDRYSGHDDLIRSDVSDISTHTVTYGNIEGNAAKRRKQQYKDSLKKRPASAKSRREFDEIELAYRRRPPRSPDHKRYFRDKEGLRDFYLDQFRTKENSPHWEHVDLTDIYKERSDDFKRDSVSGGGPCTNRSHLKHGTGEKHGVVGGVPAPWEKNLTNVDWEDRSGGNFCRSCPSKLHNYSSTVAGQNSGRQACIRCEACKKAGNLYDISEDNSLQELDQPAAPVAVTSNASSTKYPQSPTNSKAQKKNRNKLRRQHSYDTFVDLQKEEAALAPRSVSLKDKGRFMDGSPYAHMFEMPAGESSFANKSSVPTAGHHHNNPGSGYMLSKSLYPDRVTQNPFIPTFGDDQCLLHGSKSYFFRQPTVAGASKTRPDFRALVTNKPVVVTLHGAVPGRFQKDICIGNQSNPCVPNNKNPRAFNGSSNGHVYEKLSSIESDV
Chain of NR1/NR2D (Q62645 28-1323, other chains not shown): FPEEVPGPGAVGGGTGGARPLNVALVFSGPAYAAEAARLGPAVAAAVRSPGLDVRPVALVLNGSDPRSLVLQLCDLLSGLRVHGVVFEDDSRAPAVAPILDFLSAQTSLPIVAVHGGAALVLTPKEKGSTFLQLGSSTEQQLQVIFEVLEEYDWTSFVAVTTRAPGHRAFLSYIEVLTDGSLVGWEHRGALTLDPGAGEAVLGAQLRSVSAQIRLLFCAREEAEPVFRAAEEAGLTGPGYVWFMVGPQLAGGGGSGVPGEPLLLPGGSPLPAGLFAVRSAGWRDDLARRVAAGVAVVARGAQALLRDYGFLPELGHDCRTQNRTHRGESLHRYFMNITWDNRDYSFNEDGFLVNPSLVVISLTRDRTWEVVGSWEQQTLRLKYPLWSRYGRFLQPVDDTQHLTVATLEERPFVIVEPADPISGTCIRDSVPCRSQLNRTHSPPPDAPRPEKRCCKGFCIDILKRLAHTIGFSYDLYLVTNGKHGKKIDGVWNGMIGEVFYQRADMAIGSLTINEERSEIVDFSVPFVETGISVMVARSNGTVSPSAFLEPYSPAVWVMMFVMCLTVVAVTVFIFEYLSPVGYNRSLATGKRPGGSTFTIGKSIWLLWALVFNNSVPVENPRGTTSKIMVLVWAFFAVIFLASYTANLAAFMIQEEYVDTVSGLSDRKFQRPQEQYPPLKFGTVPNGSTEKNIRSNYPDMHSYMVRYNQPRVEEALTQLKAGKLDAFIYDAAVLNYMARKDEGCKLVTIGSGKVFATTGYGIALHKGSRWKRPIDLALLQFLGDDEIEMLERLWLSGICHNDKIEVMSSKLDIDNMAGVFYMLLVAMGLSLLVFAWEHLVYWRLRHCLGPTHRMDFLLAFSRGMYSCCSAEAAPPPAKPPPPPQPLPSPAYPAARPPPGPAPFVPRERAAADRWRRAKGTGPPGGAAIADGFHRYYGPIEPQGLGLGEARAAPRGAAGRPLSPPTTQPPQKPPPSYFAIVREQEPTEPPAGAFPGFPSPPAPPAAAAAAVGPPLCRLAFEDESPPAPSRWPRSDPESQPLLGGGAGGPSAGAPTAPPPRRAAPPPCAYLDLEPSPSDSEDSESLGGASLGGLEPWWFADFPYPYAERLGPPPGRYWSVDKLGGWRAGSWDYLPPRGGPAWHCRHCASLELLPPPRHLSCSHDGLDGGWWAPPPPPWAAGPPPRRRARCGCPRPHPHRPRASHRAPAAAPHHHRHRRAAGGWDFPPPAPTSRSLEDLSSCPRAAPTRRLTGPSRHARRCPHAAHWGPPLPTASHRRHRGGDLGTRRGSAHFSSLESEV

`O=C(O)CCC(=O)N1N=C(c2c(-c3ccccc3)c3cc(Br)ccc3[nH]c2=O)CC1c1ccc(Br)cc1` (stereo not shown) [compound 997] showed an IC50 (NR1/NR2A) of 78 µM, an IC50 (NR1/NR2B; [1]) of 19 µM and an IC50 (NR1/NR2C; [2]) of 5 µM. The IC50 (NR1/NR2D; [3]) was 3 µM.
For `CCCCN(CCCC)C(=O)Oc1ccc(C(=O)Nc2cccc3ccccc23)cc1` [1063-8], the remaining activity at 100 µM (NR1/NR2A; [4]) was 135%, the remaining activity at 100 µM (NR1/NR2B; [5]) was 88% and the remaining activity at 100 µM (NR1/NR2D) was 87%.
`CCN(C)C(=O)Oc1ccc(C(=O)Nc2cccc3cc[nH]c23)cc1` [1063-30] was tested, and the remaining activity at 100 µM (NR1/NR2A; [6]) was 89%, the remaining activity at 100 µM (NR1/NR2B; [7]) was 71% and the IC50 (NR1/NR2C) was 72 µM. The IC50 (NR1/NR2D) was 56 µM.
`C=CCN(CC=C)C(=S)Oc1ccc(C(=O)Nc2cccc3ccccc23)cc1` [compound 1380] was tested, and the IC50 (NR1/NR2D; [3]) was 279 µM.
Compound `CCN(CC)C(=O)Oc1ccc(C(=O)Nc2cc(C)cc3c2NCC3)cc1` [1063-32] has a remaining activity at 100 µM (NR1/NR2A; [6]) of 81%, an IC50 (NR1/NR2B) of 215 µM and an IC50 (NR1/NR2C) of 20 µM. The IC50 (NR1/NR2D) was 8 µM.
`CC(C)N(C(=O)Oc1ccc(C(=O)Oc2cccc3c(N)cccc23)cc1)C(C)C` [1063-14] gave a remaining activity at 100 µM (NR1/NR2A; [4]) of 104%, a remaining activity at 100 µM (NR1/NR2B; [5]) of 95% and a remaining activity at 100 µM (NR1/NR2C) of 85%. The remaining activity at 100 µM (NR1/NR2D) was 75%.
`CCN(CC)C(=O)Oc1ccc(C(=O)Nc2cc(C)cc(C)c2)cc1` [1063-17] gave a remaining activity at 100 µM (NR1/NR2A; [6]) of 79%, an IC50 (NR1/NR2B) of 89 µM and an IC50 (NR1/NR2C) of 18 µM. It also gave an IC50 (NR1/NR2D) of 8 µM.
Work on `CCN(CC)C(=S)Oc1ccc(C(=O)Nc2ccc3ccccc3c2)cc1` [1063-0] yielded a remaining activity at 30 µM (NR1/NR2A; at 30 μM, read-out: 2A percent effect at the maximum tested concentration) of 101%, a remaining activity at 30 µM (NR1/NR2B; at 30 μM, read-out: 2B percent effect at the maximum tested concentration) of 99% and an IC50 (NR1/NR2C; [2]) of 243 µM. It also gave an IC50 (NR1/NR2D; [3]) of 91 µM.
`O=C(O)CCC(=O)N1N=C(c2c(-c3ccccc3)c3cc(Cl)ccc3[nH]c2=O)CC1c1cccc(Br)c1` (stereo not shown) [compound 1176] gave an IC50 (NR1/NR2A) of 24 µM, an IC50 (NR1/NR2B; [1]) of 30 µM and an IC50 (NR1/NR2C; [2]) of 7 µM. The IC50 (NR1/NR2D; [3]) was 4 µM.
Work on `CC(C)N(C(=O)Oc1ccc(C(=O)Nc2ccc3[nH]ccc3c2)cc1)C(C)C` [1063-16] yielded a remaining activity at 100 µM (NR1/NR2A; [6]) of 100%, a remaining activity at 100 µM (NR1/NR2B; [7]) of 81% and an IC50 (NR1/NR2C) of 30 µM. It also gave an IC50 (NR1/NR2D) of 44 µM.
`O=C(Nc1cccc2ccccc12)c1ccc(OC(=O)N2CCCCC2)cc1` [1063-7] gave a remaining activity at 100 µM (NR1/NR2A; [4]) of 135%, a remaining activity at 100 µM (NR1/NR2B; [5]) of 98% and a remaining activity at 100 µM (NR1/NR2D) of 84%.
`CCN(CC)C(=O)Oc1ccccc1C(=O)Nc1cccc2ccccc12` [1063-25] was tested, and the remaining activity at 100 µM (NR1/NR2A; [4]) was 88%, the remaining activity at 100 µM (NR1/NR2B; [5]) was 88% and the remaining activity at 100 µM (NR1/NR2C) was 83%. The remaining activity at 100 µM (NR1/NR2D) was 91%.
In the case of `O=c1[nH]c2ccc(Br)cc2c(-c2ccccc2)c1C1=NNC(c2ccc(F)cc2)C1` (stereo not shown) [compound 1248], the IC50 (NR1/NR2D; [3]) is reported as > 300 µM.
Compound `CCN(CC)C(=S)Oc1ccc(C(=O)Nc2ccc(Cl)c3ccccc23)cc1` [1063-12] has a remaining activity at 100 µM (NR1/NR2A; [4]) of 92%, a remaining activity at 100 µM (NR1/NR2B; [5]) of 80% and an IC50 (NR1/NR2C; [2]) of 25 µM. It also gave an IC50 (NR1/NR2D; [3]) of 100 µM.
`O=C(Nc1cccc2ccccc12)c1ccc(Oc2nc3ccccc3s2)cc1` [1063-23] showed a remaining activity at 100 µM (NR1/NR2A; [4]) of 91%, a remaining activity at 100 µM (NR1/NR2B; [5]) of 85% and a remaining activity at 100 µM (NR1/NR2C) of 89%. For the same compound, the remaining activity at 100 µM (NR1/NR2D) was 91%.
`Cc1ccc(C2CC(c3c(-c4ccccc4)c4cc(Br)ccc4[nH]c3=O)=NN2C(=O)CCC(=O)O)cc1` (stereo not shown) [compound 1185] was tested, and the IC50 (NR1/NR2A) was 140 µM, the IC50 (NR1/NR2B; [1]) was 59 µM and the IC50 (NR1/NR2C; [2]) was 16 µM. It also gave an IC50 (NR1/NR2D; [3]) of 9 µM.
For `CN(C)C(=O)Oc1ccc(C(=O)Nc2cccc3ccccc23)cc1` [1063-3], the remaining activity at 100 µM (NR1/NR2A; [6]) was 110%, the IC50 (NR1/NR2B) was 1450 µM and the IC50 (NR1/NR2C) was 619 µM. The IC50 (NR1/NR2D) was 194 µM.
In the case of `O=C(Nc1cccc2ccccc12)c1ccc(Oc2nc(-c3ccccc3)cs2)cc1` [1063-22], the remaining activity at 100 µM (NR1/NR2A; [4]) is reported as 96%, the remaining activity at 100 µM (NR1/NR2B; [5]) is reported as 91% and the remaining activity at 100 µM (NR1/NR2C) is reported as 92%. It also gave a remaining activity at 100 µM (NR1/NR2D) of 88%.
